Article PMC8145110, “Design, Synthesis, and Antibacterial Screening of Some Novel Heteroaryl-Based Ciprofloxacin Derivatives as DNA Gyrase and Topoisomerase IV Inhibitors” (Pharmaceuticals, 2021)
Values after ≈ are worked out from the molar mass of the structure shown.

Tests used:
[1] = tested on: Candida albicans (ATCC 7102); test: Kirby-Bauer disc diffusion, C. albicans; type: cell-based; conditions: % of fluconazole
Description: Furthermore, using fluconazole as a reference drug, 1–21 were tested in vitro for antifungal activity against A. flavus and C. albicans (Table 1).
(§1) The cultures used were collected from the Cairo University’s Microanalytical Centre, Faculty of Science. An updated Kirby-Bauer disc diffusion method was applied for antimicrobial activities of the tests 1–21 compounds [32, 33, 34, 35]. See Appendix A.
The cultures used were collected from the Cairo University’s Microanalytical Centre, Faculty of Science. An updated Kirby-Bauer disc diffusion method was applied for the antimicrobial activities of the tests for compounds 1–21 [28]. […] Plates inoculated with filamentous fungi as Aspergillus flavus were incubated at 25 °C for 48 h; Gram positive bacteria as Staphylococcus aureus (ATCC 12600, Microanalytical center, Cairo, Egypt), Bacillus subtilis (ATCC 6051); Gram negative bacteria as Escherichia coli (ATCC 11775), Pseudomonas aeuroginosa (ATCC 10145) were incubated at 35–37 °C for 24–48 h and yeast as Candida albicans (ATCC 7102) was incubated at 30 °C for 24–48 h and, then the diameters of the inhibition zones were measured in millimeters. […] For the disc diffusion, the zone diameters were measured with slipping calipers of the National Committee for Clinical Laboratory Standards, and the results are given in Table 1. […]

[2] = tested on: B. subtilis; test: MIC, two-fold serial dilution, B. subtilis; type: cell-based; conditions: Bacillus subtilis; read-out: Minimum Inhibitory Concentration (MIC), B. subtilis
Description: (§2) Table 2, using the reference drug ciprofloxacin, was presented with the MICs (minimal inhibitory concentrations) of these compounds against tested bacteria. […] The nature of aromatic substitution in the oxadiazole moiety tends to be correlated with higher antibacterial effects and the activity increased with (Ar) in the order of 2-pyridyl ≥ 3-pyridyl > 4-pyridyl > 2-Cl-Ph > 2-naphthyl.
(§3) On 96-well microtiter plates and […] of fresh bacterial culture of a single McFarland unit overnight, a double serial dilution of each compound […] in sterile standard saline was prepared for every single source well. Ciprofloxacin antibiotic (5 mg/mL^−1) and normal saline were included as standard references in each assay (see Appendix A).
(§4) In 96-well microtiter plates and […] of fresh bacterial culture of a single McFarland unit overnight, a double serial dilution of each compound […] in sterile standard saline was prepared for every single source well. Ciprofloxacin antibiotic (5 mg/mL^−1) and normal saline were included as standard reference in each assay. The plates were incubated at 37 °C overnight. As an indicator of bacterial growth, […] of p-iodonitrotetrazolium violet (INT) was added to each well and incubated at 37 °C for 30 min. […] The colorless tetrazolidium salt acts as an electron accepter and is reduced to a red colored formazan product by biological activity organisms. Where bacterial growth was inhibited, the solution in the well remained clear after incubation with INT.

[3] = tested on: S. aureus; test: MIC, two-fold serial dilution, S. aureus; type: cell-based, Staphylococcus aureus; conditions: Staphylococcus aureus; read-out: Minimum Inhibitory Concentration (MIC), S. aureus
Description: as §2, §3, §4

[4] = tested on: E. coli; test: MIC, two-fold serial dilution, E. coli; type: cell-based; conditions: Escherichia coli; read-out: Minimum Inhibitory Concentration (MIC), E. coli
Description: as §2, §3, §4

[5] = tested on: P. aeruginosa; test: MIC, two-fold serial dilution, P. aeruginosa; type: cell-based; conditions: Pseudomonas aeruginosa; read-out: Minimum Inhibitory Concentration (MIC), P. aeruginosa
Description: as §2, §3, §4

[6] = molecular target: T1, E. coli DNA gyrase (Escherichia coli, UniProt P0AES4+P0AES6); test: E. coli DNA gyrase assay; type: biochemical
T1 construct: purchased Inspiralis
T1 sequence (P0AES4 whole entry, one chain of several): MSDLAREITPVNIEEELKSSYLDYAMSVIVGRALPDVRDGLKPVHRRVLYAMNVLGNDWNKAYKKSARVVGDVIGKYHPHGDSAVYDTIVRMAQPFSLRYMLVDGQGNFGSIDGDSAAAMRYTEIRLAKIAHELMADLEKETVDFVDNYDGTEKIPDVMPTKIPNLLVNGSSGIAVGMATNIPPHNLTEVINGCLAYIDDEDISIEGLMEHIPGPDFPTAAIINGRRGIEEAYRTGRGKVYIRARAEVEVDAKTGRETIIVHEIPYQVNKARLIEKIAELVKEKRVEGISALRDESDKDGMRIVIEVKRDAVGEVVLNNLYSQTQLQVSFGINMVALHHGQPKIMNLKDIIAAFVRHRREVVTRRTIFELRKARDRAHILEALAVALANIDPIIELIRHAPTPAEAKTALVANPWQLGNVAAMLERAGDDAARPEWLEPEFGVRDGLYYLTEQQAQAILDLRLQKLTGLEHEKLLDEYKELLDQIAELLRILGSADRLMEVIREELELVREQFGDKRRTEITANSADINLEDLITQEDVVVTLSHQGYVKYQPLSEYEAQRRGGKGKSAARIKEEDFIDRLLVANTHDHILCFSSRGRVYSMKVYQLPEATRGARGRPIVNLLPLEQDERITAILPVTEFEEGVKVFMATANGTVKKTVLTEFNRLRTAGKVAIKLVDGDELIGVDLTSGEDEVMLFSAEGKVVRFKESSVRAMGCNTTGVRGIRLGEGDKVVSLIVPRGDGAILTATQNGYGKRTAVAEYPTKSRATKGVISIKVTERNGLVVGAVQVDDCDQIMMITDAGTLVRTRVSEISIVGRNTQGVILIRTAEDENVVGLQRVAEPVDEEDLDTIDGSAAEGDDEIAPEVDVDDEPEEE
Description: (§5) IC50 assay determination was carried out in accordance with the procedures previously stated (see Appendix A).
(§6) Inhibitory activities were determined in an assay from Inspiralis on streptavidin-coated 96-well microtiter plates from Thermo scientific Pierce. […] After washing off the unbound oligonucleotide, the enzyme test was performed. […] After that, the TF buffer (50 mM NaOAc with pH 5.0, 50 mM NaCl and 50 mM MgCl2) was added to terminate the enzymatic reaction. After additional incubation for 30 min at rt, during which biotin-oligonucleotide-plasmid triplex was 19 formed, the unbound plasmid was washed off using TF buffer and SybrGOLD in T10 buffer (10 mM Tris HCl with pH 8.0 and 1 mM EDTA) was added. […] Initial screening was done at 100 or 10 μM concentration of inhibitors. […] GraphPad Prism software was used to calculate the IC50 values. The result is given as the average value of three independent measurements. […] Determination of inhibitory activities on E. coli and S. aureus Topoisomerase IV IC50 values were determined in an assay from Inspiralis on streptavidin-coated 96-well microtiter plates from Thermo scientific Pierce. […] After washing off the unbound oligonucleotide, the enzyme test was performed. The reaction volume of 30 μL in buffer (40 mM HEPES KOH with pH 7.6, 100 mM potassium glutamate, 10 mM magnesium acetate, 10 mM DTT, 1 mM ATP, 0.05 mg/mL albumin) contained 1.5 U of topoisomerase IV from E. coli or S. aureus, 0.75 μg of pNO1 supercoiled plasmid, and 3 μL solution of the inhibitor in DMSO (10%) and Tween 20 (0.008%). […] After additional incubation for 30 min at rt, during which triplex (biotin-oligonucleotide-plasmid) was formed, the unbound plasmid was washed off using TF buffer and SybrGOLD in T10 buffer (10 mM Tris HCl with pH 8.0 and 1 mM EDTA) was added. […] Initial screening was done at 100 or 10 μM concentration of inhibitors. […] GraphPad Prism software was used to calculate the IC50 values. The result is given as the average value of three independent measurements.

[7] = molecular target: T2, E. coli topoisomerase IV (Escherichia coli, UniProt P0AFI2+P20083); test: E. coli topoisomerase IV assay; type: biochemical
T2 construct: purchased Inspiralis
T2 sequence (P0AFI2 whole entry): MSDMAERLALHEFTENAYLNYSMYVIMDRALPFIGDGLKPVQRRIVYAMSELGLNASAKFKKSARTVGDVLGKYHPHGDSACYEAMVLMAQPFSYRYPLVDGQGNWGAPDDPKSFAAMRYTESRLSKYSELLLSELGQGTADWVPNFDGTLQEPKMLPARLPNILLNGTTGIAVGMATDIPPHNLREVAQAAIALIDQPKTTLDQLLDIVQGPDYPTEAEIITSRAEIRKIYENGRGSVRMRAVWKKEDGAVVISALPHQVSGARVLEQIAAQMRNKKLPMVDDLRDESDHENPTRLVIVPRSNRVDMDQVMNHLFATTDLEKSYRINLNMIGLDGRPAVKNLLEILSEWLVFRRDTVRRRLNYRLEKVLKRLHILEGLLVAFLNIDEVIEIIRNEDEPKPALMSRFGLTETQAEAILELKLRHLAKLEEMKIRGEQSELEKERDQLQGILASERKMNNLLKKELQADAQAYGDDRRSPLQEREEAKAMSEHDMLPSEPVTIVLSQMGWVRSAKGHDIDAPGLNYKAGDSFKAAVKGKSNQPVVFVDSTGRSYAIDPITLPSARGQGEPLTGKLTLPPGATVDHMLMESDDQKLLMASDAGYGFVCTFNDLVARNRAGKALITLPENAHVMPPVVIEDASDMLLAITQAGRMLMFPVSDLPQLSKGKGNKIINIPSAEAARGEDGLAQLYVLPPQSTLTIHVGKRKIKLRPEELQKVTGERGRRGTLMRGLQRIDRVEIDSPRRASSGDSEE
T2 sequence (P20083 whole entry): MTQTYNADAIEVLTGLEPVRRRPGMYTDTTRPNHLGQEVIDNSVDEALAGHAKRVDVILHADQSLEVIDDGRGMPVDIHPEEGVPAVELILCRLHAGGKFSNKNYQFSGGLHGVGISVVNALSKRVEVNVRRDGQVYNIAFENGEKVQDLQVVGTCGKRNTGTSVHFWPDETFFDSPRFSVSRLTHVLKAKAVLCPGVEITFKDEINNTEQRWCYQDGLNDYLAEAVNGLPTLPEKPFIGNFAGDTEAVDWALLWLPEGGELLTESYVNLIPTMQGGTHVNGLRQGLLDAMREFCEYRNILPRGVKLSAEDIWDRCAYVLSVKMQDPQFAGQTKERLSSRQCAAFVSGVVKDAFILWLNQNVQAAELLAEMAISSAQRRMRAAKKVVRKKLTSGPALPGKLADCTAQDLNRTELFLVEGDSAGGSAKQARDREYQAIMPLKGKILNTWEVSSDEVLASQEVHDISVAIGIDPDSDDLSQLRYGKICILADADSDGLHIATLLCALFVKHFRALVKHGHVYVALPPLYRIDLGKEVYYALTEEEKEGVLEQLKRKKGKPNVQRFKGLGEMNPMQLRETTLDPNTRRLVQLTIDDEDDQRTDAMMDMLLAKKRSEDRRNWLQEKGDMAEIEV
Description: as §5, §6

[8] = Cell viability assay (MTT); type: cell-based; parameters: dose or concentration left out as unconfirmed; conditions: human, MCF-10A mammary gland epithelial cells, four days
Description: A human mammary gland epithelial cell line (MCF-10A) was used to conduct a cell viability assay. Compounds 2–6 were incubated with MCF-10A cells for four days, and the viability of the cells was determined using the 3-(4,5-dimethylthiazol-2-yl)-2,5-diphenyltetrazolium bromide (MTT) assay. All compounds had no cytotoxic effects, and the viability of the cells was greater than 85% for most of the compounds examined […], as shown in Table 4.
MTT Assay was performed to investigate the effect of compounds 2–6 on the viability of mammary epithelial cells (MCF-10A) (see Appendix A).

[9] = tested on: Staphylococcus aureus (ATCC 12600); test: Kirby-Bauer disc diffusion, S. aureus; type: cell-based; conditions: % of ciprofloxacin
Description: (§7) An updated Kirby-Bauer disc diffusion method was used to assess the antimicrobial activity of the tested samples [32, 33, 34, 35]. Using ciprofloxacin as a reference drug, synthetic compounds 1–21 were tested in vitro for antibacterial activity against S. aureus and B. subtilis as Gram-positive strains and E. coli and P. aeruginosa as Gram-negative strains. […]. […].
as §1
The cultures used were collected from the Cairo University’s Microanalytical Centre, Faculty of Science. An updated Kirby-Bauer disc diffusion method was applied for the antimicrobial activities of the tests for compounds 1–21 [28]. Shortly after, 10 mL of fresh medium was grown to 100 μL bacteria/food until a count of 10^8 cells/mL or 10^5 cells/mL was achieved. One hundred μL microbial suspension was spread over agar plates that suited the broth in which it was held. The selected colonies of each organism that may play a pathogenic function should be from the primary agar plates and tested by the disc diffusion method for susceptibility. Plates inoculated with filamentous fungi as Aspergillus flavus were incubated at 25 °C for 48 h; Gram positive bacteria as Staphylococcus aureus (ATCC 12600, Microanalytical center, Cairo, Egypt), Bacillus subtilis (ATCC 6051); Gram negative bacteria as Escherichia coli (ATCC 11775), Pseudomonas aeuroginosa (ATCC 10145) were incubated at 35–37 °C for 24–48 h and yeast as Candida albicans (ATCC 7102) was incubated at 30 °C for 24–48 h and, then the diameters of the inhibition zones were measured in millimeters. Standard discs of ciprofloxacin (antibacterial agent), fluconazole (antifungal agent) served as positive controls for antimicrobial activity, but filter discs impregnated with 10 µL of solvent (distilled water, chloroform, DMSO) were used as a negative control. Blank paper disks (Schleicher and Schuell, Cytiva, Spain) with a diameter of 8.0 mm were impregnated with 10 µL of tested concentration of the stock solutions. When a filter paper disc impregnated with a tested chemical is placed on agar, the chemical will diffuse from the disc into the agar. This diffusion will place the chemical in the agar only around the disc. The solubility of the chemical and its molecular size will determine the size of the area of chemical infiltration around the disc. […] For the disc diffusion, the zone diameters were measured with slipping calipers of the National Committee for Clinical Laboratory Standards, and the results are given in Table 1. […]

[10] = tested on: Escherichia coli (ATCC 11775); test: Kirby-Bauer disc diffusion, E. coli; type: cell-based; conditions: % of ciprofloxacin
Description: as §7, §1
The cultures used were collected from the Cairo University’s Microanalytical Centre, Faculty of Science. An updated Kirby-Bauer disc diffusion method was applied for the antimicrobial activities of the tests for compounds 1–21 [28]. Shortly after, 10 mL of fresh medium was grown to 100 μL bacteria/food until a count of 10^8 cells/mL or 10^5 cells/mL was achieved. One hundred μL microbial suspension was spread over agar plates that suited the broth in which it was held. The selected colonies of each organism that may play a pathogenic function should be from the primary agar plates and tested by the disc diffusion method for susceptibility. Plates inoculated with filamentous fungi as Aspergillus flavus were incubated at 25 °C for 48 h; Gram positive bacteria as Staphylococcus aureus (ATCC 12600, Microanalytical center, Cairo, Egypt), Bacillus subtilis (ATCC 6051); Gram negative bacteria as Escherichia coli (ATCC 11775), Pseudomonas aeuroginosa (ATCC 10145) were incubated at 35–37 °C for 24–48 h and yeast as Candida albicans (ATCC 7102) was incubated at 30 °C for 24–48 h and, then the diameters of the inhibition zones were measured in millimeters. […] For the disc diffusion, the zone diameters were measured with slipping calipers of the National Committee for Clinical Laboratory Standards, and the results are given in Table 1. […]

| SMILES | antifungal activity against C. albicans relative to fluconazole [1] [%] | MIC [2] [µg/mL] | MIC [3] [µg/mL] | MIC [4] [µg/mL] | MIC [5] [µg/mL] | IC50 [6] [nM] | remaining activity at 1 µM ([7]; read-out: RA (%), residual activity of E. coli Topo IV) [%] | viability at 4 days [8] [%] | melting point [°C] | antibacterial activity relative to ciprofloxacin, S. aureus [9] | antibacterial activity relative to ciprofloxacin, E. coli [10] | IC50 [7] [nM] |
| --- | --- | --- | --- | --- | --- | --- | --- | --- | --- | --- | --- | --- |
| O=C(O)c1cn(C2CC2)c2cc(N3CCN(Cn4nc(-c5ccc6ccccc6c5)oc4=S)CC3)c(F)cc2c1=O [Compound 3, 1-Cyclopropyl-6-fluoro-7-[4-(5-naphthalen-2-yl-2-thioxo-[1,3,4]oxadiazol-3-ylmethyl)-piperazin-1-yl]-4-oxo-1,4-dihydro-quinoline-3-carboxylic acid] | 33 | 0.125 (≈ 0.219 µM) | 0.125 (≈ 0.219 µM) | 0.125 (≈ 0.219 µM) | 0.05 (≈ 0.0875 µM) | 86 ± 9 | 58 | 85 | 244 | – | – | – |
| O=C(O)c1cn(C2CC2)c2cc(N3CCN(Cn4nc(-c5ccccn5)oc4=S)CC3)c(F)cc2c1=O [Compound 4, 1-Cyclopropyl-6-fluoro-4-oxo-7-[4-(5-pyridin-2-yl-2-thioxo-[1,3,4]oxadiazol-3-yl-methyl)-piperazin-1-yl]-1,4-dihydro-quinoline-3-carboxylic acid] | – | 0.125 (≈ 0.239 µM) | 0.035 (≈ 0.067 µM) | 0.062 (≈ 0.119 µM) | 0.062 (≈ 0.119 µM) | 42 ± 7 | – | 89 | 218 | equipotent | equipotent | 1470 ± 200 |
| O=C(O)c1cn(C2CC2)c2cc(N3CCN(Cn4nc(-c5cccnc5)oc4=S)CC3)c(F)cc2c1=O [Compound 5, 1-Cyclopropyl-6-fluoro-4-oxo-7-[4-(5-pyridin-3-yl-2-thioxo-[1,3,4]oxadiazol-3-yl-methyl)-piperazin-1-yl]-1,4-dihydro-quinoline-3-carboxylic acid] | – | 0.125 (≈ 0.239 µM) | 0.035 (≈ 0.067 µM) | 0.062 (≈ 0.119 µM) | 0.125 (≈ 0.239 µM) | 92 ± 9 | – | 91 | 230 | equipotent | equipotent | 6800 ± 200 |
